According to US20210268070A1, “Use of Immunomodulators to Control Infection and Stimulate Healing in Normal and Diabetic Wounds” (priority 2018, published 2021):

Experiments:
P. aeruginosa PA103 = assay: Wound model of infection with PA103 in diabetic db/db mice; type: in vivo; settings: for infection control against P. aeruginosa in diabetic wounds infected with PA103: 10^6 PA103, topical at time of surgery & infection, 24 h, FIG. 2D
Procedure: The implant model of infection in C57B mice was used for 10^6 PA103 (FIG. 2A) or 10^6 USA300 MRSA (FIG. 2C). The wound model of infection was used for 10^6 PA103 in C57BL mice (FIG. 2B) or diabetic db/db mice (FIG. 2D). Infection was carried out at the time of surgery by adding bacteria directly to the surgical sites. Immunomodulators, namely, LPS (10 ng or 100 ng), fMLP (10 ng or 100 ng), CCL3 (1 μg) were added topically at the surgical sites at the time of surgery & infection. GM-CSF (10 μg/kg), tobramycin (Tob at 3.5 mg/kg), and vancomycin (40 mg/kg) were added systemically by i.p. injection 1 h before surgical implantation and infection. Infection levels were determined 24 h following infection (N>4 animals/group; NS=not significant, * p<0.01, ** p<0.001, ***p<0.0001 One-way ANOVA).
We assessed these immunomodulators for their ability to control wound and/or implant SS's in normal (C57BL/6) or diabetic (db/db) mice. We acknowledge that diabetic individuals are not as immunocompromised as other immunocompromised patient groups. […] All immunomodulators were added locally at the surgical sites at the time of infection, except GM-CSF (10 μg/kg) which was administered systemically by i.p. injection 1 h prior to surgery per its FDA-approved route of delivery. […] CCL3 and GM-CSF are also tested using the implant model of infection. Here, we tested CCL3 and GM-CSF in the wound model of infection in C57B mice.
Implant surgery and wound surgery and surgical site infection are performed according to the following method. On the day of surgery, all mice are anesthetized by an intraperitoneal injection of a ketamine/xylazine mixture (90 mg/kg ketamine+5 mg/kg xylazine for mice). The back of the animals is shaved using an electric shave and scrubbed with alcohol swabs 3 times, a topical antiseptic solution (Hibiclens; chlorhexidine gluconate) is applied to the skin. The surgical procedures are performed with sterile instruments, sterile surgical gloves, and aseptic techniques as follows. For wound surgical procedure, a sterile biopsy punch (5-7 mm diameter) is used to punch through the full thickness of the back skin below the shoulder blades. Four 5-7 mm skin wounds are made on the back of each mouse. Wounds placed in this area cannot be reached by the animals and therefore are protected from self-licking. For implant surgery, a 4-mm long lateral skin incision is made on the upper back, and the skin is retracted. The space above the muscle is opened using blunt dissection with fine forceps, to create a rostral fascia indentation. Then, immunomodulators at indicated concentrations (in a 20 μL volume) or PBS control are injected into the fascia indentation. After a 1 min wait for fluid to be absorbed, a disc implant, (1.87 mm diameter, 0.68 mm thick (Part # VP 724F-1)), is inserted in the fascia indentation. […] For implant surgery, the fascia indentation is left open, while the skin is closed with 4-0 nylon sutures. The fascia above the back muscles in mice is too thin and fragile to allow it to be sutured closed around the implant.

leukocytes = assay: Leukocyte migration (H&E staining) and activation (MPO ELISA) in normal wound; type: in vivo, C57B mice; settings: for leukocyte migration and neutrophil activation in a normal wound: compared to PBS, FIGS. 10A-10D
Text: FIGS. 10A-10D illustrate that immunomodulatory treatment enhances leukocyte migration and neutrophil activation in a normal wound. (10A, 10B—CCL3, 10C—LPS, fMLF, 10D—GM-CSF), N=4; Significance determined as compared to PBS *<0.05, **p<0.01, ***p<0.001.
We next examined the impact of CCL3 topical treatment on leukocyte migration by H&E staining, and on leukocyte activation by myeloperoxidase (MPO) measurements by ELISA. (MPO is primarily used as a marker for neutrophil activation but it can also be expressed to lesser extent in macrophages).

inflammatory cytokines = assay: Production of inflammatory cytokines in normal wound; type: in vivo, mice
Procedure: FIGS. 7A and 7B illustrate that CCL3 treatment increases the production of inflammatory cytokines in a normal wound. N=4; Significance determined as compared to PBS *<0.05, **p<0.01, ***p<0.001.
FIGS. 8A and 8B illustrate that LPS and fMLP treatment increases the production of inflammatory cytokines in a normal wound. N=4; LPS (10 ng) and fMLP (100 nM) directly added to wounds at the time of infection after wounding. Significance determined as compared to PBS *<0.05, **p<0.01.
Tissue-Tek O.C.T. (Sakura); Lysing Matrix D (MP Biomedicals); Collagenase (Roche Diagnostics), Hematoxylin and eosin (H&E); DNase 1 (Sigma-Aldrich); Hyluronidase, Streptozotocin (Sigma-Aldrich); Trizol (Invitrogen); CD45 antibody (eBioscience, Inc); Ly6C; Ly6G; CD11b; CD3 (BioLegend); CD68; GAPDH (Sigma-Aldrich). Ly6G and CD68 (Abcam); Primer pairs for GAPDH were from Qiagen. Masson's trichrome stain (Sigma-Aldrich); Picrosirius red (Abcam); Fibronectin (Chemicon International); Insulin slow-release capsules (Linplant; LinShin, Toronto, Canada) CCL3 (R&D Systems) fMLP (Sigma-Aldrich); II-1β ELISA (R&D Systems); TNF-α ELISA (R&D Systems).

[1] = LPS (10 ng) and fMLP (100 nM) directly added to wounds at the time of infection after wounding, FIGS. 8A and 8B
[2] = topical CCL3 to C57B wounds, regardless of infection, FIG. 10A, 10B

lipopolysaccharide [LPS]
antimicrobial defenses in diabetic wounds against P. aeruginosa (P. aeruginosa PA103; compared to PBS, FIG. 13A): increases | infection control against P. aeruginosa in diabetic wounds infected with PA103 (P. aeruginosa PA103; db/db mice): significantly improved | leukocyte migration and neutrophil activation in a normal wound (leukocytes): enhances | production of inflammatory cytokines in a normal wound (inflammatory cytokines; [1]): increases

CSCC[C@H](NC=O)C(=O)N[C@@H](CC(C)C)C(=O)N[C@@H](Cc1ccccc1)C(=O)O [fMLP, N-Formylmethionyl-leucyl-phenylalanine]
infection control against P. aeruginosa in diabetic wounds infected with PA103 (P. aeruginosa PA103; db/db mice): significantly improved | leukocyte migration and neutrophil activation in a normal wound (leukocytes): enhances | production of inflammatory cytokines in a normal wound (inflammatory cytokines; [1]): increases

B1: Chemokine (C-C motif) ligand 3 (protein, listed as Homo sapiens)
chain: MQVSTAALAVLLCTMALCNQFSASLAADTPTACCFSYTSRQIPQNFIADYFETSSQCSKPGVIFLTKRSRQVCADPSEEWVQKYVSDLELSA
notes: class 1 immunomodulator
infection control in diabetic wounds (P. aeruginosa PA103; P. aeruginosa PA103 10^3, compared to PBS, FIG. 11A): increases | infection control against P. aeruginosa in diabetic wounds infected with PA103 (P. aeruginosa PA103; db/db mice): significantly improved | infection control in diabetic animals, compared with LPS or fMLP (P. aeruginosa PA103; db/db mice, PA103, FIG. 2D): significantly more effective | leukocyte migration and neutrophil activation in a normal wound (leukocytes): enhances | leukocytes' activation in the wound (myeloperoxidase, MPO, by ELISA) (leukocytes; [2]): significant increases | leukocytes' migration in the wound (H&E staining) (leukocytes; [2]): significant increases | production of inflammatory cytokines in a normal wound (inflammatory cytokines; CCL3 treatment, compared to PBS, FIGS. 7A and 7B): increases
